IC50 and DC50 data for 17 compounds are collected here from patent US11414416B1, “Compounds and uses thereof” (Foghorn Therapeutics Inc., priority 2019, dated 2022).

Structures are written as SMILES. pIC50: −log10 of the molar value. Some results are limits rather than exact numbers.

As usually defined, the pIC50 is the negative decadic logarithm of the IC50, by convention in mol/L.

Test [1] addresses Nanoluciferase-BRD9 fusion protein (Homo sapiens (Human), UniProt Q9H8M2). In words: SYO1 BRD9 NanoLuc degradation assay. As to conditions: Table 5A, SYO-1 cells expressing 3×FLAG-NLuc-BRD9, 6 hours; for DC50: read-out: SYO1 BRD9-NanoLuc degradation IC50. Type of test: cell-based. Put shortly: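 Degradation was read as loss of nanoluciferase signal (Nano-Glo) after 6 h compound exposure in a stable SYO-1 line carrying 3×FLAG-NLuc-BRD9 (8000 cells/well). Normalised between DMSO (high) and a 1 μM known BRD9 degrader (low).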

A further test concerns the target BRD9 bromodomain (Homo sapiens (Human), UniProt Q9H8M2). In words: BRD9 bromodomain TR-FRET competition binding assay. As to conditions: Table 4; competition with biotinylated ligand, 3 nM Flag-BRD9, 90 minutes. As for the experimental part:
Procedure: His-Flag-BRD9 (P133-K239; Swiss Prot Q9H8M2; SEQ ID NO:1 mgsshhhhhhenlyfq/gdykddddkgslevlfqg/[…] […]) was cloned, expressed, purified, and then treated with TEV protease. Cleaved His tag was removed by purification. The binding of a biotinylated small molecule ligand of BRD9 was assessed via the LANCE® TR-FRET platform (PerkinElmer), and the compounds were assayed for inhibitory activity against this interaction.
A mixture of biotinylated-ligand and SureLight™ Allophycocyanin-Streptavidin (APC-SA, PerkinElmer AD0201) in 50 mM HEPES (pH 7.4), 50 mM NaCl, 1 mM TCEP (pH 7), 0.01% (v/v) Tween-20, 0.01% (w/v) bovine serum albumin was added to a white 384-well PerkinElmer Proxiplate Plus plate. DMSO or 3-fold serially diluted compounds were then added to the Proxiplate followed by addition of Flag-BRD9. After a 10-minute incubation at room temperature, Eu-W1024 anti-FLAG (PerkinElmer, AD0273) was added. The final reaction mixture that contained 3.75 nM biotinylated ligand, 3 nM Flag-BRD9, 7.5 nM SureLight™ Allophycocyanin-Streptavidin, and 0.2 nM Eu-W1024 anti-FLAG was incubated at room temperature for 90 minutes.
Results: The plates were then read on a PerkinElmer Envision plate reader to determine the ratio of emission at 665 nm over 615 nm. […]

Chain of Nanoluciferase-BRD9 fusion protein (Q9H8M2 whole entry, the tested form may be a part): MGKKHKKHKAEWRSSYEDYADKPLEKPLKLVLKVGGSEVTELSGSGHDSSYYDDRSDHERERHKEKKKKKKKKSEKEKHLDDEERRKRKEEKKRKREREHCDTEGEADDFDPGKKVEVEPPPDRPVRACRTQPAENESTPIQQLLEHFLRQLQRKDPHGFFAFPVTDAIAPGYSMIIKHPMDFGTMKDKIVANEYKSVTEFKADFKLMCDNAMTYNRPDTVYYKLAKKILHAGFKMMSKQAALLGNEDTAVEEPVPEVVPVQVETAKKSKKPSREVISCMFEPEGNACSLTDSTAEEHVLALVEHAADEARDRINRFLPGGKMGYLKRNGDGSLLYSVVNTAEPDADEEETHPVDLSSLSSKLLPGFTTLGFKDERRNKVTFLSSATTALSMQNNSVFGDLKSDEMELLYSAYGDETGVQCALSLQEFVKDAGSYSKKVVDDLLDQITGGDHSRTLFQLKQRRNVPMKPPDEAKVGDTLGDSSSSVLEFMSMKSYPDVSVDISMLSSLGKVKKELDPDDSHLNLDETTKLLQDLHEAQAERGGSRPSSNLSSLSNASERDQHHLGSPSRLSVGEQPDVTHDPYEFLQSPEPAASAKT
Chain of BRD9 bromodomain (Q9H8M2 133-239): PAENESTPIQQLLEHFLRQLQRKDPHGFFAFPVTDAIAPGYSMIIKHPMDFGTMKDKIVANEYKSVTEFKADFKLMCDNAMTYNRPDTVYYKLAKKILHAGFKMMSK

Consider `COc1cc(-c2cn(C)c(=O)c3cnccc23)cc(OC)c1CN1CC(C(=O)NCCCCCCCCNc2cccc3c2C(=O)N(C2CCC(=O)NC2=O)C3=O)C1` (stereo not drawn) [Compound D1, 1-[[2,6-dimethoxy-4-(2-methyl-1-oxo-1,2-dihydro-2,7-naphthyridin-4-yl)phenyl]methyl]-N-(8-[[2-(2,6-dioxopiperidin-3-yl)-1,3-dioxo-2,3-dihydro-1H-isoindol-4-yl]amino]octyl)azetidine-3-carboxamide formic acid], for which the values for the pIC50 (in test [1]; at BRD9 bromodomain) were > 8.00 and 7.00 to 8.00, respectively.
On to `COc1cc(-c2cn(C)c(=O)c3cnccc23)cc(OC)c1CN(C)CC(=O)N1CCC(C2CCN(C(=O)COc3cccc4c3C(=O)N(C3CCC(=O)NC3=O)C4=O)CC2)CC1` (stereo not drawn) [Compound D2, 4-(2-[1-[2-([[2,6-dimethoxy-4-(2-methyl-1-oxo-1,2-dihydro-2,7-naphthyridin-4-yl)phenyl]methyl](methyl)amino)acetyl]-[4,4-bipiperidin]-1-yl]-2-oxoethoxy)-2-(2,6-dioxopiperidin-3-yl)-2,3-dihydro-1H-isoindole-1,3-dione], for which the DC50 in test [1] lay in the range of 10 to 100 nM. The pIC50 on BRD9 bromodomain was > 8.00.
In the case of `COc1cc(-c2cn(C)c(=O)c3cnccc23)cc(OC)c1CN1CC(C(=O)NCCCCCNc2cccc3c2C(=O)N(C2CCC(=O)NC2=O)C3=O)C1` (stereo not drawn) [Compound D3, 1-[[2,6-dimethoxy-4-(2-methyl-1-oxo-1,2-dihydro-2,7-naphthyridin-4-yl)phenyl]methyl]-N-(5-[[2-(2,6-dioxopiperidin-3-yl)-1,3-dioxo-2,3-dihydro-1H-isoindol-4-yl]amino]pentyl) azetidine-3-carboxamide], the pIC50 (in test [1]; at BRD9 bromodomain) was > 8.00 each time.
In the case of `COc1cc(-c2cn(C)c(=O)c3cnccc23)cc(OC)c1CN1CC(C(=O)NCCCCCCCCNC(=O)COc2cccc3c2C(=O)N(C2CCC(=O)NC2=O)C3=O)C1` (stereo not drawn) [Compound D4, N-[8-[(1-[[2,6-dimethoxy-4-(2-methyl-1-oxo-1,2-dihydro-2,7-naphthyridin-4-yl)phenyl]methyl]azetidin-3-yl)formamido]octyl]-2-[[2-(2,6-dioxopiperidin-3-yl)-1,3-dioxo-2,3-dihydro-1H-isoindol-4-yl]oxy]acetamide formic acid], in test [1], the DC50 lay within 10 to 100 nM. For the same compound, the pIC50 at BRD9 bromodomain is > 8.00.
The like results for `COc1cc(-c2cn(C)c(=O)c3cnccc23)cc(OC)c1CN1CC(NC(=O)CCCCCOc2cccc3c2C(=O)N(C2CCC(=O)NC2=O)C3=O)C1` (stereo not drawn) [Compound D5, N-(1-[[2,6-dimethoxy-4-(2-methyl-1-oxo-1,2-dihydro-2,7-naphthyridin-4-yl)phenyl]methyl]azetidin-3-yl)-6-[[2-(2,6-dioxopiperidin-3-yl)-1,3-dioxo-2,3-dihydro-1H-isoindol-4-yl]oxy]hexanamide] were, in that order, 10 to 100 nM and > 8.00.
Regarding `COc1cc(-c2cn(C)c(=O)c3cnccc23)cc(OC)c1CN1CC(C(=O)N2CCC(C3CCN(C(=O)COc4cccc5c4C(=O)N(C4CCC(=O)NC4=O)C5=O)CC3)CC2)C1` (stereo not drawn) [Compound D6, 4-[2-[1-(1-[[2,6-dimethoxy-4-(2-methyl-1-oxo-1,2-dihydro-2,7-naphthyridin-4-yl)phenyl]methyl]azetidine-3-carbonyl)-[4,4-bipiperidin]-1-yl]-2-oxoethoxy]-2-(2,6-dioxopiperidin-3-yl)-2,3-dihydro-1H-isoindole-1,3-dione formic acid], the pIC50 (in test [1]; at BRD9 bromodomain) was > 8.00 each time.
On to `COc1cc(-c2cn(C)c(=O)c3cnccc23)cc(OC)c1CN1CC(C(=O)NCCOCCOCCNc2cccc3c2C(=O)N(C2CCC(=O)NC2=O)C3=O)C1` (stereo not drawn) [Compound D7, 1-[[2,6-dimethoxy-4-(2-methyl-1-oxo-1,2-dihydro-2,7-naphthyridin-4-yl)phenyl]methyl]-N-[2-[2-(2-[[2-(2,6-dioxopiperidin-3-yl)-1,3-dioxo-2,3-dihydro-1H-isoindol-4-yl]amino]ethoxy)ethoxy]ethyl]azetidine-3-carboxamide formic acid], for which, in test [1], the DC50 lay in the range of 10 to 100 nM. Further, the pIC50 on BRD9 bromodomain is > 8.00.
The like results for `COc1cc(-c2cn(C)c(=O)c3cnccc23)cc(OC)c1CN1CC(C(=O)NCCCCCCCCNc2cccc3c2C(=O)N(C2CCC(=O)N(C)C2=O)C3=O)C1` (stereo not drawn) [Compound D8, 1-[[2,6-dimethoxy-4-(2-methyl-1-oxo-1,2-dihydro-2,7-naphthyridin-4-yl)phenyl]methyl]-N-(8-[[2-(1-methyl-2,6-dioxopiperidin-3-yl)-1,3-dioxo-2,3-dihydro-1H-isoindol-4-yl]amino]octyl)azetidine-3-carboxamide formic acid] were, in that order, > 1000 nM and > 8.00.
On to `COc1cc(-c2cn(C)c(=O)c3cnccc23)cc(OC)c1CN1CC(CC(=O)NCCCCCCCCNc2cccc3c2C(=O)N(C2CCC(=O)NC2=O)C3=O)C1` (stereo not drawn) [Compound D9, 2-(1-[[2,6-dimethoxy-4-(2-methyl-1-oxo-1,2-dihydro-2,7-naphthyridin-4-yl)phenyl]methyl]azetidin-3-yl)-N-(8-[[2-(2,6-dioxopiperidin-3-yl)-1,3-dioxo-2,3-dihydro-1H-isoindol-4-yl]amino]octyl)acetamide formic acid], for which the pIC50 (in test [1]; on BRD9 bromodomain) was > 8.00 in each case.
`COc1cc(-c2cn(C)c(=O)c3cnccc23)cc(OC)c1CN1CC[C@@H]1C(=O)NCCCCCCCCNc1cccc2c1C(=O)N(C1CCC(=O)NC1=O)C2=O` (stereo partly drawn) [Compound D10]: the figures for the pIC50 (in test [1]; on BRD9 bromodomain) were > 8.00 and 7.00 to 8.00, respectively.
The like results for `COc1cc(-c2cn(C)c(=O)c3cnccc23)cc(OC)c1CN1CC[C@H]1C(=O)NCCCCCCCCNc1cccc2c1C(=O)N(C1CCC(=O)NC1=O)C2=O` (stereo partly drawn) [Compound D11, (2S)-1-[[2,6-dimethoxy-4-(2-methyl-1-oxo-2,7-naphthyridin-4-yl)phenyl]methyl]-N-(8-[[2-(2,6-dioxopiperidin-3-yl)-1,3-dioxoisoindol-4-yl]amino]octyl)azetidine-2-carboxamide] were, in that order, > 8.00 and 7.00 to 8.00.
In the case of `COc1cc(-c2cn(C)c(=O)c3cnccc23)cc(OC)c1CN1CC(S(=O)(=O)NCCCCCCCCNc2cccc3c2C(=O)N(C2CCC(=O)NC2=O)C3=O)C1` (stereo not drawn) [Compound D12, 1-[[2,6-dimethoxy-4-(2-methyl-1-oxo-1,2-dihydro-2,7-naphthyridin-4-yl)phenyl]methyl]-N-(8-[[2-(2,6-dioxopiperidin-3-yl)-1,3-dioxo-2,3-dihydro-1H-isoindol-4-yl]amino]octyl)azetidine-3-sulfonamide], the pIC50 (in test [1]; at BRD9 bromodomain) was > 8.00 each time.
Consider `COc1cc(-c2cn(C)c(=O)c3cnccc23)cc(OC)c1CN1CC(C)(C(=O)NCCCCCCCCNc2cccc3c2C(=O)N(C2CCC(=O)NC2=O)C3=O)C1` (stereo not drawn) [Compound D13, 1-(2,6-dimethoxy-4-(2-methyl-1-oxo-1,2-dihydro-2,7-naphthyridin-4-yl)benzyl)-N-(8-((2-(2,6-dioxopiperidin-3-yl)-1,3-dioxoisoindolin-4-yl)amino)octyl)-3-methylazetidine-3-carboxamide], for which the DC50 in test [1] was < 10 nM. For the same compound, the pIC50 on BRD9 bromodomain was > 8.00.
Turning to `COc1cc(-c2cn(C)c(=O)c3cnccc23)cc(OC)c1CN1CC(C(=O)N(C)CCCCCCCCNc2cccc3c2C(=O)N(C2CCC(=O)NC2=O)C3=O)C1` (stereo not drawn) [Compound D14, 1-[[2,6-dimethoxy-4-(2-methyl-1-oxo-1,2-dihydro-2,7-naphthyridin-4-yl)phenyl]methyl]-N-(8-[[2-(2,6-dioxopiperidin-3-yl)-1,3-dioxo-2,3-dihydro-1H-isoindol-4-yl]amino]octyl)-N-methylazetidine-3-carboxamide], the pIC50 (in test [1]; at BRD9 bromodomain) was > 8.00 each time.
With `COc1cc(-c2cn(C)c(=O)c3cnccc23)cc(OC)c1CN1CC(C(=O)N(C)CCCCCNc2cccc3c2C(=O)N(C2CCC(=O)NC2=O)C3=O)C1` (stereo not drawn) [Compound D15, 1-[[2,6-dimethoxy-4-(2-methyl-1-oxo-1,2-dihydro-2,7-naphthyridin-4-yl)phenyl]methyl]-N-(5-[[2-(2,6-dioxopiperidin-3-yl)-1,3-dioxo-2,3-dihydro-1H-isoindol-4-yl]amino]pentyl)-N-methylazetidine-3-carboxamide formic acid], the pIC50 (in test [1]; on BRD9 bromodomain) was > 8.00 in each case.
As to `COc1cc(-c2cn(C)c(=O)c3cnccc23)cc(OC)c1CN1CC(S(=O)(=O)NCCCCCNc2ccc3c(c2)C(=O)N(C2CCC(=O)NC2=O)C3=O)C1` (stereo not drawn) [Compound D23, 1-[[2,6-dimethoxy-4-(2-methyl-1-oxo-1,2-dihydro-2,7-naphthyridin-4-yl)phenyl]methyl]-N-(5-[[2-(2,6-dioxopiperidin-3-yl)-1,3-dioxo-2,3-dihydro-1H-isoindol-5-yl]amino]pentyl) azetidine-3-sulfonamide formic acid], the pIC50 (in test [1]; at BRD9 bromodomain) was > 8.00 in each case.
As to `COc1cc(-c2cn(C)c(=O)c3cnccc23)cc(OC)c1CN1CC2CN(C(=O)CCOCCOc3cccc4c3C(=O)N(C3CCC(=O)NC3=O)C4=O)CCC21` (stereo not drawn) [Compound D92], the pIC50 at BRD9 bromodomain was > 8.00.
